Results reported in patent publication US6204002A, “Gangliosides having fluorescent-tagged ceramide moieties” (priority 1996, dated 2001).

Legend:
[1] = test system: influenza virus A/Aichi/2/68 (H3N2); experiment: TLC/virus binding assay: binding activity of ganglioside to influenza virus
[2] = format: physicochemical; conditions: densitometer, GM3 adhered to a microplate; insufficient to detect influenza virus

| SMILES | sensitivity relative to conventional sialyl(α2-6)lactosylceramide [1] | relative measurement intensity (response of densitometer at 620 nm minus response at 430 nm) ([1]; 6 nmol ganglioside spotted on TLC plate, reference point set equal to 100, FIG. 1) | detection of influenza virus (sensitivity) ([1]; TLC/virus binding assay, A/Aichi/2/68 (H3N2)) | detection sensitivity relative to GM3 ([1]; according to FIG. 1, A/Aichi/2/68 (H3N2)) | fluorescence of virus-bound compound in hydrophobic conditions [2] |
| --- | --- | --- | --- | --- | --- |
| CCCCCCCCCCCCC/C=C/[C@@H](O)[C@H](CO[C@@H]1O[C@H](CO)[C@@H](O[C@@H]2O[C@H](CO[C@]3(C(=O)O)C[C@H](O)[C@@H](NC(C)=O)[C@H]([C@H](O)[C@H](O)CO)O3)[C@H](O)[C@H](O)[C@H]2O)[C@H](O)[C@H]1O)NC(=O)CCc1ccc(/C=C/C=C/C=C/c2ccccc2)cc1 [compound 3, O-(5-acetamide-3,5-dideoxy-D-glycero-α-D-galacto-2-nonuropyranosylonate)-(2→6)-O-(β-D-galactopyranosyl)-(1→4)-O-(β-D-glucopyranosyl)-(1→1)-(2S, 3R,4E)-2-(3-(p-(6-phenyl)1,3,5-hexatrienyl)phenylpropionamide)-4-octadecene-1,3-diol] | 4 times | 100% | very high sensitivity | 12 times | – |
| O=C1OC2(c3ccc(O)cc3Oc3cc(O)ccc32)c2ccccc21 [GM3 fluorescein] | – | – | – | – | very weak fluorescence |
